Measured values from US20250144094A1 (Erasca, Inc., priority 2021, published 2025).

target: Recombinant human ULK1 (1-649) (Homo sapiens (Human), UniProt O75385); assay: ULK1 ADP Glo kinase activity assay, new method (ULKtide peptide substrate); details: 25° C., 40 minutes, read-out: ULK1 biochemical IC50
Outline: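 GST-tagged human ULK1 (1-649) from Sf9 cells was reacted with ULKtide peptide and ATP for 40 min at 25 °C across 12-point compound dilutions from 10 μM. ADP formed was quantified by ADP-Glo luminescence; IC50 came from four-parameter fits relative to DMSO controls.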

Sequence of Recombinant human ULK1 (1-649) (O75385 1-649): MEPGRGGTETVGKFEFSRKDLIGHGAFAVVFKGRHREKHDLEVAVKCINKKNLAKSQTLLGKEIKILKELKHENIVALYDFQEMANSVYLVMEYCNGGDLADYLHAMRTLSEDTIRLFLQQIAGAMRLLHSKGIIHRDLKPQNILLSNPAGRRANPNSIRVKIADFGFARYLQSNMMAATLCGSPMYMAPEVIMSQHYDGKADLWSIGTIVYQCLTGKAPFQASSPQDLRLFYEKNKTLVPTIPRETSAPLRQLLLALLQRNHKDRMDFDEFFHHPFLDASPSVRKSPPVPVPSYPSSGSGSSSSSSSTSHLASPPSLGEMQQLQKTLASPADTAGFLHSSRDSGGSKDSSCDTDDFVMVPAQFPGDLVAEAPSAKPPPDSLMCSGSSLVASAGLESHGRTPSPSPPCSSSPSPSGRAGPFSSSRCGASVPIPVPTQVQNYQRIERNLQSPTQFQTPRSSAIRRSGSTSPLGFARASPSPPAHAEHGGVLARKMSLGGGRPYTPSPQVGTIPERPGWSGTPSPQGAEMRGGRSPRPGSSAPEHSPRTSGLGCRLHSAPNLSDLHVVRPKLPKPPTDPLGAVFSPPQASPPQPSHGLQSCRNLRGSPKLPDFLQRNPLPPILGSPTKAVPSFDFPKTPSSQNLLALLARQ

Structure (SMILES) | IC50
CC1(CN2CCc3cc(Nc4ncc(C(F)(F)F)c(-c5cc6c(s5)C(=O)N(C5CC5)CCS6(=O)=O)n4)c(C4CC4)cc3C2)COC1 [Example 279, 4-cyclopropyl-7-(2-((7-cyclopropyl-2-((3-methyloxetan-3-yl)methyl)-1,2,3,4-tetrahydroisoquinolin-6-yl)amino)-5-(trifluoromethyl)pyrimidin-4-yl)-3,4-dihydrothieno[2,3-f][1,4]thiazepin-5(2H)-one 1,1-dioxide] | ≤ 5 nM
CCc1cc(N2CCN(CC(N)=O)CC2)ccc1Nc1ncc(C(F)(F)F)c(-c2cc3c(s2)C(=O)N(C2CC2)CCS3(=O)=O)n1 [Example 280, 2-(4-(4-((4-(4-cyclopropyl-1,1-dioxido-5-oxo-2,3,4,5-tetrahydrothieno[2,3-f][1,4]thiazepin-7-yl)-5-(trifluoromethyl)pyrimidin-2-yl)amino)-3-ethylphenyl)piperazin-1-yl)acetamide] | ≤ 5 nM
CCc1cc(C2CCN(CCF)CC2)ccc1Nc1ncc(C(F)(F)F)c(-c2cc3c(s2)C(=O)N(C2CC2)CCS3(=O)=O)n1 [Example 282, 4-cyclopropyl-7-(2-((2-ethyl-4-(1-(2-fluoroethyl)piperidin-4-yl)phenyl)amino)-5-(trifluoromethyl)pyrimidin-4-yl)-3,4-dihydrothieno[2,3-f][1,4]thiazepin-5(2H)-one 1,1-dioxide] | ≤ 5 nM
CN1CCS(=O)(=O)c2cc(-c3nc(Nc4cc5c(cc4Cl)CNCC5)ncc3C3CC3)sc2C1=O [Example 283, 7-(2-((7-chloro-1,2,3,4-tetrahydroisoquinolin-6-yl)amino)-5-cyclopropylpyrimidin-4-yl)-4-methyl-3,4-dihydrothieno[2,3-f][1,4]thiazepin-5(2H)-one 1,1-dioxide] | ≤ 5 nM
NC(=O)CN1CCc2cc(Nc3ncc(C(F)(F)F)c(-c4cc5c(s4)C(=O)N(C4COC4)CCS5(=O)=O)n3)c(C3CC3)cc2C1 [Example 284, 2-(7-cyclopropyl-6-((4-(4-(oxetan-3-yl)-1,1-dioxido-5-oxo-2,3,4,5-tetrahydrothieno[2,3-f][1,4]thiazepin-7-yl)-5-(trifluoromethyl)pyrimidin-2-yl)amino)-3,4-dihydroisoquinolin-2(1H)-yl)acetamide] | ≤ 5 nM
N#CCN1CCc2cc(Nc3ncc(C(F)(F)F)c(-c4cc5c(s4)C(=O)N(C4COC4)CCS5(=O)=O)n3)c(C3CC3)cc2C1 [Example 285, 2-(7-cyclopropyl-6-((4-(4-(oxetan-3-yl)-1,1-dioxido-5-oxo-2,3,4,5-tetrahydrothieno[2,3-f][1,4]thiazepin-7-yl)-5-(trifluoromethyl)pyrimidin-2-yl)amino)-3,4-dihydroisoquinolin-2(1H)-yl)acetonitrile] | 5 to 10 nM
CC1(CN2CCc3cc(Nc4ncc(C(F)(F)F)c(-c5cc6c(s5)C(=O)N(C5COC5)CCS6(=O)=O)n4)c(C4CC4)cc3C2)COC1 [Example 286, 7-(2-((7-cyclopropyl-2-((3-methyloxetan-3-yl)methyl)-1,2,3,4-tetrahydroisoquinolin-6-yl)amino)-5-(trifluoromethyl)pyrimidin-4-yl)-4-(oxetan-3-yl)-3,4-dihydrothieno[2,3-f][1,4]thiazepin-5(2H)-one 1,1-dioxide] | ≤ 5 nM
CC(C)(O)CN1CCc2cc(Nc3ncc(C(F)(F)F)c(-c4cc5c(s4)C(=O)N(C4CC4)CCS5(=O)=O)n3)c(C3CC3)cc2C1 [Example 287, 4-cyclopropyl-7-(2-((7-cyclopropyl-2-(2-hydroxy-2-methylpropyl)-1,2,3,4-tetrahydroisoquinolin-6-yl)amino)-5-(trifluoromethyl)pyrimidin-4-yl)-3,4-dihydrothieno[2,3-f][1,4]thiazepin-5(2H)-one 1,1-dioxide] | ≤ 5 nM
CCc1cc(C2CCN(CC(F)(F)F)CC2)ccc1Nc1ncc(C(F)(F)F)c(-c2cc3c(s2)C(=O)N(C2CC2)CCS3(=O)=O)n1 [Example 288, 4-cyclopropyl-7-(2-((2-ethyl-4-(1-(2,2,2-trifluoroethyl)piperidin-4-yl)phenyl)amino)-5-(trifluoromethyl)pyrimidin-4-yl)-3,4-dihydrothieno[2,3-f][1,4]thiazepin-5(2H)-one 1,1-dioxide] | > 100 nM
O=C1c2sc(-c3nc(Nc4cc5c(cc4C4CC4)CN(C4COC4)CC5)ncc3C(F)(F)F)cc2S(=O)(=O)CCN1C1CC1 [Example 289, 4-cyclopropyl-7-(2-((7-cyclopropyl-2-(oxetan-3-yl)-1,2,3,4-tetrahydroisoquinolin-6-yl)amino)-5-(trifluoromethyl)pyrimidin-4-yl)-3,4-dihydrothieno[2,3-f][1,4]thiazepin-5(2H)-one 1,1-dioxide] | 5 to 10 nM
CC(C)(O)CN1CCc2cc(Nc3ncc(C(F)(F)F)c(-c4cc5c(s4)C(=O)N(C4COC4)CCS5(=O)=O)n3)c(C3CC3)cc2C1 [Example 291, 7-(2-((7-cyclopropyl-2-(2-hydroxy-2-methylpropyl)-1,2,3,4-tetrahydroisoquinolin-6-yl)amino)-5-(trifluoromethyl)pyrimidin-4-yl)-4-(oxetan-3-yl)-3,4-dihydrothieno[2,3-f][1,4]thiazepin-5(2H)-one 1,1-dioxide] | ≤ 5 nM
O=C1c2sc(-c3nc(Nc4cc5c(cc4C4CC4)CN(C4COC4)CC5)ncc3C(F)(F)F)cc2S(=O)(=O)CCN1C1COC1 [Example 292, 7-(2-((7-cyclopropyl-2-(oxetan-3-yl)-1,2,3,4-tetrahydroisoquinolin-6-yl)amino)-5-(trifluoromethyl)pyrimidin-4-yl)-4-(oxetan-3-yl)-3,4-dihydrothieno[2,3-f][1,4]thiazepin-5(2H)-one 1,1-dioxide] | ≤ 5 nM
O=C1c2sc(-c3nc(Nc4cc5c(cc4C4CC4)CN(C4CC4)CC5)ncc3C(F)(F)F)cc2S(=O)(=O)CCN1C1CC1 [Example 293, 4-Cyclopropyl-7-(2-((2,7-dicyclopropyl-1,2,3,4-tetrahydroisoquinolin-6-yl)amino)-5-(trifluoromethyl)pyrimidin-4-yl)-3,4-dihydrothieno[2,3-f][1,4]thiazepin-5(2H)-one 1,1-dioxide] | 5 to 10 nM
CCc1cc(N2CCN(C3CC3)CC2)ccc1Nc1ncc(C(F)(F)F)c(-c2cc3c(s2)C(=O)N(C2CC2)CCS3(=O)=O)n1 [Example 294, 4-Cyclopropyl-7-(2-((4-(4-cyclopropylpiperazin-1-yl)-2-ethylphenyl)amino)-5-(trifluoromethyl)pyrimidin-4-yl)-3,4-dihydrothieno[2,3-f][1,4]thiazepin-5(2H)-one 1,1-dioxide] | ≤ 5 nM
O=S1(=O)CCNS(=O)(=O)c2sc(-c3nc(Nc4cc5c(cc4Cl)CNCC5)ncc3C(F)(F)F)cc21 [Example 295, 7-(2-((7-chloro-1,2,3,4-tetrahydroisoquinolin-6-yl)amino)-5-(trifluoromethyl)pyrimidin-4-yl)-3,4-dihydro-2H-thieno[3,2-f][1,5,2]dithiazepine 1,1,5,5-tetraoxide] | ≤ 5 nM
CCc1cc(C2CCN(CC(F)F)CC2)ccc1Nc1ncc(C(F)(F)F)c(-c2cc3c(s2)C(=O)N(C2COC2)CCS3(=O)=O)n1 [Example 296, 7-(2-((4-(1-(2,2-difluoroethyl)piperidin-4-yl)-2-ethylphenyl)amino)-5-(trifluoromethyl)pyrimidin-4-yl)-4-(oxetan-3-yl)-3,4-dihydrothieno[2,3-f][1,4]thiazepin-5(2H)-one 1,1-dioxide] | 5 to 10 nM
CC1(C)CC(CN2CCc3cc(Nc4ncc(C(F)(F)F)c(-c5cc6c(s5)C(=O)N(C5CC5)CCS6(=O)=O)n4)c(C4CC4)cc3C2)O1 (stereo not shown) [Example 297, 4-Cyclopropyl-7-(2-((7-cyclopropyl-2-((4,4-dimethyloxetan-2-yl)methyl)-1,2,3,4-tetrahydroisoquinolin-6-yl)amino)-5-(trifluoromethyl)pyrimidin-4-yl)-3,4-dihydrothieno[2,3-f][1,4]thiazepin-5(2H)-one 1,1-dioxide] | ≤ 5 nM
CCc1cc(C2CCN(CC(F)(F)F)CC2)ccc1Nc1ncc(C(F)(F)F)c(-c2cc3c(s2)C(=O)N(C2COC2)CCS3(=O)=O)n1 [Example 298, 7-(2-((2-Ethyl-4-(1-(2,2,2-trifluoroethyl)piperidin-4-yl)phenyl)amino)-5-(trifluoromethyl)pyrimidin-4-yl)-4-(oxetan-3-yl)-3,4-dihydrothieno[2,3-f][1,4]thiazepin-5(2H)-one 1,1-dioxide] | 10 to 50 nM
CC(C)(F)CN1CCc2cc(Nc3ncc(C(F)(F)F)c(-c4cc5c(s4)C(=O)N(C4CC4)CCS5(=O)=O)n3)c(C3CC3)cc2C1 [Example 299, 4-cyclopropyl-7-(2-((7-cyclopropyl-2-(2-fluoro-2-methylpropyl)-1,2,3,4-tetrahydroisoquinolin-6-yl)amino)-5-(trifluoromethyl)pyrimidin-4-yl)-3,4-dihydrothieno[2,3-f][1,4]thiazepin-5(2H)-one 1,1-dioxide] | 10 to 50 nM
CC(C)(F)CN1CCc2cc(Nc3ncc(C(F)(F)F)c(-c4cc5c(s4)C(=O)N(C4COC4)CCS5(=O)=O)n3)c(C3CC3)cc2C1 [Example 300, 7-(2-((7-cyclopropyl-2-(2-fluoro-2-methylpropyl)-1,2,3,4-tetrahydroisoquinolin-6-yl)amino)-5-(trifluoromethyl)pyrimidin-4-yl)-4-(oxetan-3-yl)-3,4-dihydrothieno[2,3-f][1,4]thiazepin-5(2H)-one 1,1-dioxide] | 10 to 50 nM
O=C1c2sc(-c3nc(Nc4cc5c(cc4C4CC4)CN(C4CC4)CC5)ncc3C(F)(F)F)cc2S(=O)(=O)CCN1C1COC1 [Example 301, 7-(2-((2,7-dicyclopropyl-1,2,3,4-tetrahydroisoquinolin-6-yl)amino)-5-(trifluoromethyl)pyrimidin-4-yl)-4-(oxetan-3-yl)-3,4-dihydrothieno[2,3-f][1,4]thiazepin-5(2H)-one 1,1-dioxide] | ≤ 5 nM
CN1CCS(=O)(=O)c2cc(-c3nc(Nc4cc5c(cc4Cl)CNCC5)ncc3C(F)(F)F)sc2S1(=O)=O [Example 302, 7-(2-((7-chloro-1,2,3,4-tetrahydroisoquinolin-6-yl)amino)-5-(trifluoromethyl)pyrimidin-4-yl)-2-methyl-3,4-dihydro-2H-thieno[3,2-f][1,5,2]dithiazepine 1,1,5,5-tetraoxide] | ≤ 5 nM
